From US20240148821A1, “PHARMACEUTICAL USE OF CYCLIC PEPTIDE COMPOUND” (CHUGAI SEIYAKU KABUSHIKI KAISHA, priority 2021, published 2024)
Numbered stars: 1 amine (or outer) side, 2 acyl side, 3 side chain; on linkers, the order of the positions; unused ones are H or OH. Bridge positions count the residues as written; N and C are the ends. Square brackets hold non-standard residues; d marks the D form. Peptide text beside a SMILES is read from it. * marks the point of attachment. hPhe(3-Cl-4-CF3) = N[C@@H](CCc1ccc(C(F)(F)F)c(Cl)c1)C(=O)O; X115 = O=C([C@H](CCc1ccc(S(F)(F)(F)(F)F)cc1)N[*:1])[*:2]; NMePhe(4-Cl) = CN[C@@H](Cc1ccc(Cl)cc1)C(=O)O; NMePhe(4-Me) = CN[C@@H](Cc1ccc(C)cc1)C(=O)O; NMePhe(2-Cl) = CN[C@@H](Cc1ccccc1Cl)C(=O)O; NMeGly(cPent) = CN[C@H](C(=O)O)C1CCCC1; Phe(3-I) = N[C@@H](Cc1cccc(I)c1)C(=O)O; NMeCha = CN[C@@H](CC1CCCCC1)C(=O)O; NMeChg = CN[C@H](C(=O)O)C1CCCCC1; NMeF = CN[C@@H](Cc1ccccc1)C(=O)O; NMeT = CN[C@H](C(=O)O)[C@@H](C)O; NMeD = CN[C@@H](CC(=O)O)C(=O)O; NMeL = CN[C@@H](CC(C)C)C(=O)O; NMeNva = CCC[C@H](NC)C(=O)O; NMeV = CN[C@H](C(=O)O)C(C)C; d(β3hA) = C[C@@H](N)CC(=O)O; NMeA = CN[C@@H](C)C(=O)O; NMeAib = CNC(C)(C)C(=O)O; Nle = CCCC[C@H](N)C(=O)O; Piperidide = C1CCN(*)CC1; Ac5c = NC1(C(=O)O)CCCC1; Aze = O=C(O)[C@@H]1CCN1; NBuGly = CCCCNCC(=O)O; βAla = NCCC(=O)O; Sar = CNCC(=O)O

What follows are compounds tested on Human pancreatic cancer cell line AsPC-1 (G12D mutation Kras) (assay: AsPC-1 cell growth inhibition (AsPC-1 CGI)). Settings: read-out: AsPC-1 cell growth inhibition, 50% growth inhibitory concentration (IC50 value); 96 hours, CellTiter-Glo, values classified in ranges.
Type: cell-based
Description: Test compounds were serially dilated with dimethyl sulfoxide, and 200 nL was then dispensed to a U-bottom 96-well plate using Labcyte Echo. […] The cell suspension was dispensed to a. plate containing a test compound at 100 μL per well and incubated at 37° C. in a 5% carbon dioxide gas incubator. 96 hours later, 80 μL of CellTiter-Glo (Promega) was added to each well and fluorescence was measured.
In the case of `CC[C@H](C)[C@@H]1NC(=O)CCNC(=O)[C@H](Cc2ccccc2)N(C)C(=O)[C@H](C2CCCCC2)N(C)C(=O)C2(CCCC2)NC(=O)[C@@H]2CCCN2C(=O)[C@H](CCc2ccc(C(F)(F)F)c(Cl)c2)NC(=O)CN(C)C(=O)[C@H](CC2CCCCC2)N(C)C(=O)CN(C)C(=O)CN(C)C1=O` [Compound 1007] (cyclo([Ac5c][NMeChg][NMeF][βAla]I[Sar][Sar][NMeCha][Sar][hPhe(3-Cl-4-CF3)]P)), the IC50 is reported as > 500 nM.
For `CC[C@H](C)[C@@H]1NC(=O)[C@H](CC(C)C)N(C)C(=O)C[C@@H](C(=O)N(C)C)N(C)C(=O)[C@H](C2CCCC2)N(C)C(=O)C2(CCCC2)NC(=O)[C@H](Cc2ccccc2Cl)N(C)C(=O)[C@H](CCc2ccc(C(F)(F)F)c(Cl)c2)NC(=O)CN(C)C(=O)[C@H](CC2CCCCC2)N(C)C(=O)[C@@H]2CCN2C(=O)[C@H](C)N(C)C1=O` [Compound 1009] ([NMeL]I[NMeA][Aze][NMeCha][Sar][hPhe(3-Cl-4-CF3)][NMePhe(2-Cl)][Ac5c][NMeGly(cPent)][NMeD]-NMe2; lactam N-11), the IC50 was > 500 nM.
For `CC[C@H](C)[C@@H]1NC(=O)[C@H](CC(C)C)N(C)C(=O)C[C@@H](C(=O)N2CCCCC2)N(C)C(=O)[C@H](CC(C)C)NC(=O)C(C)(C)N(C)C(=O)[C@H](Cc2ccccc2)NC(=O)[C@H](Cc2cccc(I)c2)NC(=O)CN(C)C(=O)[C@H](Cc2ccc(C)cc2)N(C)C(=O)[C@@H]2CCN2C(=O)[C@H](C)N(C)C1=O` [Compound 1015] ([NMeL]I[NMeA][Aze][NMePhe(4-Me)][Sar][Phe(3-I)]F[NMeAib]L[NMeD]-Piperidide; lactam N-11), the IC50 was > 500 nM.
With `CC[C@H](C)[C@@H]1NC(=O)[C@H](CC(C)C)N(C)C(=O)C[C@@H](C)NC(=O)[C@H](C(C)C)N(C)C(=O)C2(CCCC2)NC(=O)[C@@H]2CCCN2C(=O)[C@H](CCc2ccc(C(F)(F)F)c(Cl)c2)NC(=O)CN(C)C(=O)[C@H](CC2CCCCC2)N(C)C(=O)CN(C)C(=O)[C@@H]2CCN2C1=O` [Compound 1020] (cyclo([Ac5c][NMeV][d(β3hA)][NMeL]I[Aze][Sar][NMeCha][Sar][hPhe(3-Cl-4-CF3)]P)) the IC50 was > 500 nM.
With `CC[C@H](C)[C@@H]1NC(=O)[C@H](CC(C)C)N(C)C(=O)C[C@@H](C)NC(=O)[C@H](CC(C)C)N(C)C(=O)C2(CCCC2)NC(=O)[C@@H]2CCCN2C(=O)[C@H](CCc2ccc(S(F)(F)(F)(F)F)cc2)NC(=O)CN(C)C(=O)[C@H](CC2CCCCC2)N(C)C(=O)CN(C)C(=O)CN(C)C1=O` [Compound 1021] (cyclo([Ac5c][NMeL][d(β3hA)][NMeL]I[Sar][Sar][NMeCha][Sar][X115]P)) the IC50 was > 500 nM.
In the case of `CCC[C@H]1C(=O)N(C)CC(=O)N[C@@H](CCc2ccc(C(F)(F)F)c(Cl)c2)C(=O)N2CCC[C@H]2C(=O)NC2(CCCC2)C(=O)N(C)[C@@H](C(C)C)C(=O)N(C)[C@H](C(=O)N2CCCCC2)CC(=O)N(C)[C@@H](CC(C)C)C(=O)N[C@@H]([C@@H](C)CC)C(=O)N(C)[C@@H](C)C(=O)N2CC[C@H]2C(=O)N1C` [Compound 1027] ([NMeL]I[NMeA][Aze][NMeNva][Sar][hPhe(3-Cl-4-CF3)]P[Ac5c][NMeV][NMeD]-Piperidide; lactam N-11), the IC50 is reported as > 500 nM.
For `CCCCN1CC(=O)N(C)[C@@H](CC2CCCCC2)C(=O)N(C)CC(=O)N[C@@H](CCc2ccc(C(F)(F)F)c(Cl)c2)C(=O)N2CCC[C@H]2C(=O)NC2(CCCC2)C(=O)N(C)[C@@H](C(C)C)C(=O)N[C@H](C)CC(=O)N(C)[C@@H](CC(C)C)C(=O)N[C@@H]([C@@H](C)CC)C(=O)N(C)CC1=O` [Compound 1033] (cyclo([Ac5c][NMeV][d(β3hA)][NMeL]I[Sar][NBuGly][NMeCha][Sar][hPhe(3-Cl-4-CF3)]P)), the IC50 was > 500 nM.
For `CC[C@H](C)[C@@H]1NC(=O)[C@H](CC(C)C)N(C)C(=O)C[C@@H](C(=O)N2CCCCC2)N(C)C(=O)[C@H]([C@@H](C)O)N(C)C(=O)C2(CCCC2)NC(=O)[C@@H]2CCCN2C(=O)[C@H](CCc2ccc(C(F)(F)F)c(Cl)c2)NC(=O)CN(C)C(=O)[C@H](CC2CCCCC2)N(C)C(=O)CN(C)C(=O)CN(C)C1=O` [Compound 1041] ([NMeL]I[Sar][Sar][NMeCha][Sar][hPhe(3-Cl-4-CF3)]P[Ac5c][NMeT][NMeD]-Piperidide; lactam N-11), the IC50 was > 500 nM.
With `CCCC[C@@H]1NC(=O)[C@H](Cc2ccccc2)NC(=O)CN(C)C(=O)[C@H](Cc2ccc(Cl)cc2)N(C)C(=O)CN(C)C(=O)CN(C)C(=O)[C@H]([C@@H](C)CC)NC(=O)[C@H](CC(C)C)N(C)C(=O)C[C@@H](C(=O)N2CCCCC2)N(C)C(=O)[C@H](CC(C)C)NC(=O)C(C)(C)N(C)C1=O` [Compound 1043] ([NMeL]I[Sar][Sar][NMePhe(4-Cl)][Sar]F[Nle][NMeAib]L[NMeD]-Piperidide; lactam N-11) the IC50 was > 500 nM.
